Results reported in PubChem BioAssay AID1745844 (Carcinogenic Potency Database (CPDB), 2022).
Activity calls are given as the source filed them. No rule for the calls is given here.

Test system: rodent lifetime carcinogenesis bioassay, tumor incidence TD50
Experiment: chronic cancer bioassays in animals – CPDB, compiled studies (AID 1745844)

Cc1cnc2ccc3c(nc(N)n3C)c2n1
TD50 (mouse, strain CDF1, females, in feed, site: all sites, lesion: lymphoma and leukemia, combined, dosed 84 weeks, study length 84 weeks): 6820 mg/kg/day | TD50 (mouse, strain CDF1, females, in feed, site: liver, lesion: hepatocellular adenoma, dosed 84 weeks, study length 84 weeks): 14.2 mg/kg/day | TD50 (mouse, strain CDF1, females, in feed, site: liver, lesion: hepatocellular carcinoma, dosed 84 weeks, study length 84 weeks): 27.8 mg/kg/day | TD50 (mouse, strain CDF1, females, in feed, site: liver, lesion: several types, types named in the paper, dosed 84 weeks, study length 84 weeks): 14.2 mg/kg/day | TD50 (mouse, strain CDF1, females, in feed, site: lung, lesion: adenocarcinoma, dosed 84 weeks, study length 84 weeks): 257 mg/kg/day | TD50 (mouse, strain CDF1, females, in feed, site: lung, lesion: adenoma, dosed 84 weeks, study length 84 weeks): 143 mg/kg/day | TD50 (mouse, strain CDF1, females, in feed, site: lung, lesion: several types, types named in the paper, dosed 84 weeks, study length 84 weeks): 77.2 mg/kg/day | TD50 (mouse, strain CDF1, males, in feed, site: all sites, lesion: lymphoma and leukemia, combined, dosed 84 weeks, study length 84 weeks): 109 mg/kg/day | TD50 (mouse, strain CDF1, males, in feed, site: liver, lesion: hepatocellular adenoma, dosed 84 weeks, study length 84 weeks): 86.9 mg/kg/day | TD50 (mouse, strain CDF1, males, in feed, site: liver, lesion: hepatocellular carcinoma, dosed 84 weeks, study length 84 weeks): 102 mg/kg/day | TD50 (mouse, strain CDF1, males, in feed, site: liver, lesion: several types, types named in the paper, dosed 84 weeks, study length 84 weeks): 83.8 mg/kg/day | TD50 (mouse, strain CDF1, males, in feed, site: lung, lesion: adenocarcinoma, dosed 84 weeks, study length 84 weeks): 236 mg/kg/day | TD50 (mouse, strain CDF1, males, in feed, site: lung, lesion: adenoma, dosed 84 weeks, study length 84 weeks): 262 mg/kg/day | TD50 (mouse, strain CDF1, males, in feed, site: lung, lesion: several types, types named in the paper, dosed 84 weeks, study length 84 weeks): 134 mg/kg/day | TD50 (rat, strain F344/DuCrj, females, in feed, site: Zymbal's gland, lesion: squamous-cell carcinoma, dosed 61 weeks, study length 61 weeks): 6.31 mg/kg/day | TD50 (rat, strain F344/DuCrj, females, in feed, site: clitoral gland, lesion: squamous-cell carcinoma, dosed 61 weeks, study length 61 weeks): 4.72 mg/kg/day | TD50 (rat, strain F344/DuCrj, females, in feed, site: liver, lesion: neoplastic nodule, dosed 61 weeks, study length 61 weeks): 6.31 mg/kg/day | TD50 (rat, strain F344/DuCrj, females, in feed, site: skin, lesion: squamous-cell carcinoma, dosed 61 weeks, study length 61 weeks): 87.2 mg/kg/day | TD50 (rat, strain F344/DuCrj, males, in feed, site: Zymbal's gland, lesion: sebaceous adenoma, dosed 56 weeks, study length 56 weeks): 38.9 mg/kg/day | TD50 (rat, strain F344/DuCrj, males, in feed, site: Zymbal's gland, lesion: several types, types named in the paper, dosed 56 weeks, study length 56 weeks): 4.91 mg/kg/day | TD50 (rat, strain F344/DuCrj, males, in feed, site: Zymbal's gland, lesion: several types, types named in the paper, dosed 61 weeks, study length 61 weeks): 2.72 mg/kg/day | TD50 (rat, strain F344/DuCrj, males, in feed, site: Zymbal's gland, lesion: squamous-cell carcinoma, dosed 56 weeks, study length 56 weeks): 8.6 mg/kg/day | TD50 (rat, strain F344/DuCrj, males, in feed, site: Zymbal's gland, lesion: squamous-cell carcinoma, dosed 61 weeks, study length 61 weeks): 3.59 mg/kg/day | TD50 (rat, strain F344/DuCrj, males, in feed, site: Zymbal's gland, lesion: squamous-cell papilloma, dosed 56 weeks, study length 56 weeks): 29.1 mg/kg/day | TD50 (rat, strain F344/DuCrj, males, in feed, site: Zymbal's gland, lesion: squamous-cell papilloma, dosed 61 weeks, study length 61 weeks): 35.8 mg/kg/day | TD50 (rat, strain F344/DuCrj, males, in feed, site: liver, lesion: hepatocellular adenoma, dosed 56 weeks, study length 56 weeks): 3.15 mg/kg/day | TD50 (rat, strain F344/DuCrj, males, in feed, site: liver, lesion: hepatocellular carcinoma, dosed 56 weeks, study length 56 weeks): 2.91 mg/kg/day | TD50 (rat, strain F344/DuCrj, males, in feed, site: liver, lesion: hepatocellular carcinoma, dosed 61 weeks, study length 61 weeks): 1.26 mg/kg/day | TD50 (rat, strain F344/DuCrj, males, in feed, site: liver, lesion: neoplastic nodule, dosed 61 weeks, study length 61 weeks): 73.5 mg/kg/day | TD50 (rat, strain F344/DuCrj, males, in feed, site: liver, lesion: several types, types named in the paper, dosed 56 weeks, study length 56 weeks): 1.24 mg/kg/day | carcinogen call (rat, strain F344/DuCrj, males, in feed, site: liver, lesion: several types, types named in the paper, dosed 61 weeks, study length 61 weeks): positive | TD50 (rat, strain F344/DuCrj, males, in feed, site: skin, lesion: basal-cell carcinoma, dosed 61 weeks, study length 61 weeks): 73.5 mg/kg/day | TD50 (rat, strain F344/DuCrj, males, in feed, site: skin, lesion: sebaceous adenoma, dosed 56 weeks, study length 56 weeks): 58.8 mg/kg/day | TD50 (rat, strain F344/DuCrj, males, in feed, site: skin, lesion: several types, types named in the paper, dosed 56 weeks, study length 56 weeks): 12 mg/kg/day | TD50 (rat, strain F344/DuCrj, males, in feed, site: skin, lesion: several types, types named in the paper, dosed 61 weeks, study length 61 weeks): 8.76 mg/kg/day | TD50 (rat, strain F344/DuCrj, males, in feed, site: skin, lesion: squamous-cell carcinoma, dosed 56 weeks, study length 56 weeks): 59.2 mg/kg/day | TD50 (rat, strain F344/DuCrj, males, in feed, site: skin, lesion: squamous-cell carcinoma, dosed 61 weeks, study length 61 weeks): 13.1 mg/kg/day | TD50 (rat, strain F344/DuCrj, males, in feed, site: skin, lesion: squamous-cell papilloma, dosed 56 weeks, study length 56 weeks): 59.2 mg/kg/day | TD50 (rat, strain F344/DuCrj, males, in feed, site: skin, lesion: squamous-cell papilloma, dosed 61 weeks, study length 61 weeks): 73.5 mg/kg/day | TD50 (rat, strain F344/DuCrj, males, in feed, site: skin, lesion: trichoepithelioma, dosed 56 weeks, study length 56 weeks): 38.9 mg/kg/day

CC[N+]([O-])=NC
TD50 (rat, strain Fischer 344, males, in drinking water, site: colon, lesion: several types, types named in the paper, dosed 30 weeks, study length 55 weeks): 0.125 mg/kg/day | TD50 (rat, strain Fischer 344, males, in drinking water, site: ileum, lesion: one or several types, types not named, dosed 30 weeks, study length 55 weeks): 0.221 mg/kg/day | TD50 (rat, strain Fischer 344, males, in drinking water, site: liver, lesion: hemangiosarcoma, dosed 30 weeks, study length 55 weeks): 0.0391 mg/kg/day | TD50 (rat, strain Fischer 344, males, in drinking water, site: liver, lesion: hepatocellular carcinoma, dosed 30 weeks, study length 55 weeks): 0.0189 mg/kg/day | TD50 (rat, strain Fischer 344, males, in drinking water, site: liver, lesion: neurosarcoma, dosed 30 weeks, study length 55 weeks): 0.0832 mg/kg/day | carcinogen call (rat, strain Fischer 344, males, in drinking water, site: liver, lesion: several types, types named in the paper, dosed 30 weeks, study length 55 weeks): positive

CC(Oc1cc(Cl)c(Cl)cc1Cl)C(=O)O (stereo not given)
carcinogen call (mouse, strain B6AKF1, females, oral dosing, site: any site (literature study), lesion: several types, types named in the paper, dosed 76 weeks, study length 76 weeks): negative (inactive) | carcinogen call (mouse, strain B6AKF1, females, oral dosing, site: liver, lesion: hepatoma, dosed 76 weeks, study length 76 weeks): negative (inactive) | carcinogen call (mouse, strain B6AKF1, females, oral dosing, site: lung, lesion: adenoma, dosed 76 weeks, study length 76 weeks): negative (inactive) | carcinogen call (mouse, strain B6AKF1, males, oral dosing, site: any site (literature study), lesion: several types, types named in the paper, dosed 76 weeks, study length 76 weeks): negative (inactive) | carcinogen call (mouse, strain B6AKF1, males, oral dosing, site: liver, lesion: hepatoma, dosed 76 weeks, study length 76 weeks): negative (inactive) | carcinogen call (mouse, strain B6AKF1, males, oral dosing, site: lung, lesion: adenoma, dosed 76 weeks, study length 76 weeks): negative (inactive) | TD50 (mouse, strain B6C3F1, females, oral dosing, site: any site (literature study), lesion: several types, types named in the paper, dosed 76 weeks, study length 76 weeks): 52.6 mg/kg/day (inactive) | carcinogen call (mouse, strain B6C3F1, females, oral dosing, site: liver, lesion: hepatoma, dosed 76 weeks, study length 76 weeks): negative (inactive) | carcinogen call (mouse, strain B6C3F1, females, oral dosing, site: lung, lesion: several types, types named in the paper, dosed 76 weeks, study length 76 weeks): negative (inactive) | TD50 (mouse, strain B6C3F1, males, oral dosing, site: any site (literature study), lesion: several types, types named in the paper, dosed 76 weeks, study length 76 weeks): 9.07 mg/kg/day (inactive) | TD50 (mouse, strain B6C3F1, males, oral dosing, site: liver, lesion: hepatoma, dosed 76 weeks, study length 76 weeks): 16.6 mg/kg/day (inactive) | TD50 (mouse, strain B6C3F1, males, oral dosing, site: lung, lesion: adenoma, dosed 76 weeks, study length 76 weeks): 95.2 mg/kg/day (inactive)

[O]=[Mo](=[O])=[O]
TD50 (mouse, strain B6C3F1, females, inhaled, site: liver, lesion: hepatocellular adenoma + hepatoblastoma + hepatocellular carcinoma, dosed 105 weeks, study length 105 weeks): 4450 mg/kg/day | TD50 (mouse, strain B6C3F1, females, inhaled, site: lung, lesion: alveolar/bronchiolar adenoma + alveolar/bronchiolar carcinoma, dosed 105 weeks, study length 105 weeks): 68.3 mg/kg/day | TD50 (mouse, strain B6C3F1, females, inhaled, site: lung, lesion: alveolar/bronchiolar adenoma, dosed 105 weeks, study length 105 weeks): 97.8 mg/kg/day | TD50 (mouse, strain B6C3F1, females, inhaled, site: subcutaneous tissue, lesion: sarcoma, dosed 105 weeks, study length 105 weeks): 162 mg/kg/day | TD50 (mouse, strain B6C3F1, males, inhaled, site: liver, lesion: hepatocellular adenoma + hepatoblastoma + hepatocellular carcinoma, dosed 105 weeks, study length 105 weeks): 11.7 mg/kg/day | TD50 (mouse, strain B6C3F1, males, inhaled, site: liver, lesion: hepatocellular carcinoma, dosed 105 weeks, study length 105 weeks): 14.8 mg/kg/day | TD50 (mouse, strain B6C3F1, males, inhaled, site: lung, lesion: alveolar/bronchiolar adenoma + alveolar/bronchiolar carcinoma, dosed 105 weeks, study length 105 weeks): 3.21 mg/kg/day | TD50 (mouse, strain B6C3F1, males, inhaled, site: lung, lesion: alveolar/bronchiolar carcinoma, dosed 105 weeks, study length 105 weeks): 4.15 mg/kg/day | TD50 (rat, strain Fischer 344, females, inhaled, site: any site (literature study), lesion: several types, types named in the paper, dosed 105 weeks, study length 105 weeks): 14 mg/kg/day | TD50 (rat, strain Fischer 344, females, inhaled, site: clitoral gland, lesion: adenoma + carcinoma, dosed 105 weeks, study length 105 weeks): 5.04 mg/kg/day | TD50 (rat, strain Fischer 344, females, inhaled, site: mammary gland, lesion: adenoma + fibroadenoma, dosed 105 weeks, study length 105 weeks): 0.77 mg/kg/day (inactive) | TD50 (rat, strain Fischer 344, males, inhaled, site: liver, lesion: hepatocellular adenoma + hepatoblastoma + hepatocellular carcinoma, dosed 105 weeks, study length 105 weeks): 128 mg/kg/day | TD50 (rat, strain Fischer 344, males, inhaled, site: lung, lesion: alveolar/bronchiolar adenoma + alveolar/bronchiolar carcinoma, dosed 105 weeks, study length 105 weeks): 21.8 mg/kg/day | TD50 (rat, strain Fischer 344, males, inhaled, site: lung, lesion: alveolar/bronchiolar adenoma, dosed 105 weeks, study length 105 weeks): 31.6 mg/kg/day

O=CCCCC=O
TD50 (mouse, strain B6C3F1, females, inhaled, site: any site (literature study), lesion: several types, types named in the paper, dosed 104 weeks, study length 105 weeks): 3.08 mg/kg/day (inactive) | carcinogen call (mouse, strain B6C3F1, females, inhaled, site: liver, lesion: one or several types, types not named, dosed 52 weeks, study length 52 weeks): negative (inactive) | carcinogen call (mouse, strain B6C3F1, females, inhaled, site: liver, lesion: one or several types, types not named, dosed 78 weeks, study length 78 weeks): negative (inactive) | TD50 (mouse, strain B6C3F1, females, inhaled, site: lung, lesion: adenocarcinoma, dosed 52 weeks, study length 52 weeks): 0.54 mg/kg/day (inactive) | TD50 (mouse, strain B6C3F1, females, inhaled, site: lung, lesion: adenocarcinoma, dosed 78 weeks, study length 78 weeks): 0.347 mg/kg/day (inactive) | TD50 (mouse, strain B6C3F1, females, inhaled, site: lung, lesion: alveolar/bronchiolar adenoma + alveolar/bronchiolar carcinoma, dosed 104 weeks, study length 105 weeks): 17.4 mg/kg/day | carcinogen call (mouse, strain B6C3F1, males, inhaled, site: any site (literature study), lesion: several types, types named in the paper, dosed 104 weeks, study length 104 weeks): negative (inactive) | carcinogen call (mouse, strain B6C3F1, males, inhaled, site: liver, lesion: hepatocellular carcinoma, dosed 52 weeks, study length 52 weeks): negative (inactive) | carcinogen call (mouse, strain B6C3F1, males, inhaled, site: liver, lesion: hepatocellular carcinoma, dosed 78 weeks, study length 78 weeks): negative (inactive) | carcinogen call (mouse, strain B6C3F1, males, inhaled, site: lung, lesion: adenocarcinoma, dosed 52 weeks, study length 52 weeks): negative (inactive) | TD50 (mouse, strain B6C3F1, males, inhaled, site: lung, lesion: adenocarcinoma, dosed 78 weeks, study length 78 weeks): 1.14 mg/kg/day (inactive) | TD50 (rat, strain Fischer 344, females, inhaled, site: any site (literature study), lesion: several types, types named in the paper, dosed 104 weeks, study length 104 weeks): 0.125 mg/kg/day (inactive) | TD50 (rat, strain Fischer 344, males, inhaled, site: any site (literature study), lesion: several types, types named in the paper, dosed 104 weeks, study length 104 weeks): 0.239 mg/kg/day (inactive)
